Results as given in patent EP0177414A1, “Jodized triaminobenzene compounds, process for their preparation and their use in contrast products” (GUERBET S.A., priority 1984, dated 1986).
Converted amounts (≈) assume the structure as drawn.

What was measured:
[1] = Stability to sterilisation; assay type: physicochemical; conditions: treated at 121 °C for 10 mn
[2] = Neurotoxicity: acute toxicity by intracerebral administration; parameters: species or system souris; conditions: mouse, in vivo, female SWISS OF1 mice, toxicity noted 7 days after administration, read-out: DL50 IC
From the text: - la toxicité aiguë des composés a été déterminée sur souris femelles (poids 20 g) de souche SWISS OF1 par administration intra-cérébrale selon la technique décrite par HOLEY et Mc CQRMICK dans :
Pharmacological effects produced by intracerebral injection of drugs in the conscious mouse BRIT.J.PHARMACOL. 12, 2. 1957.
5 animaux sont utilisés par dose, les volumes administrés sont de 0,05 cm^3 - 0,07 cm^3 - 0,10 cm^3 par souris soit 2,5 - 3,5 et 5 cm^3 par kg, avec des vitesses d'injection lentes.
La toxicité (DL50) est notée 7 jours après l'administration. 2) Osmolalité

[3] = Solubility; assay type: physicochemical; conditions: read-out: Solubilité
From the text: (§1) - l'osmolalité exprimée en mosmoles par kg, est déterminée par cryoscopie à l'aide d'un osmomètre de type FISKE-OS Les résultats sont donnés dans le tableau suivant où l'on a également donné 1a solubilité des composés

[4] = Osmolality by cryoscopy (FISKE-OS osmometer); assay type: physicochemical
From the text: as §1

SMILES: COCC(=O)Nc1c(I)c(N(CC(O)CO)C(C)=O)c(I)c(N(CC(O)CO)C(C)=O)c1I (centres unmarked) [Exemple 8]
- stables à la stérilisation [1]: ne présentent pas de modifications
- LD50 at 168 h [2]: 3300 µmol/kg
- solubility [3]: 940 mM (≈ 757 mg/mL)

SMILES: CC(=O)N(CC(O)CO)c1c(I)c(NC(=O)C(C)O)c(I)c(N(CC(O)CO)C(C)=O)c1I (centres unmarked) [Exemple 9, 2,4,6-triiodo-1-(2-hydroxypropionyl-amino)-3,5-bis [N-(2,3-dihydroxy propyl)acétamido]benzène]
- stables à la stérilisation [1]: ne présentent pas de modifications
- LD50 at 168 h [2]: 3500 µmol/kg
- Osmolalité [4]: 690 mosmol par kg
- solubility [3]: 1000 mM (≈ 805 mg/mL)

SMILES: CC(=O)N(CC(O)CO)c1c(I)c(N(CC(O)CO)C(C)=O)c(I)c(N(CC(O)CO)C(C)=O)c1I (centres unmarked) [Exemple 3, 2,4,6-triiodo-1,3,5-tris [N-(2,3-dihydroxy propyl)acétamido]benzène]
- stables à la stérilisation [1]: ne présentent pas de modifications
- LD50 at 168 h [2]: 4000 µmol/kg
- Osmolalité [4]: 630 mosmol par kg
- solubility [3]: 1000 mM (≈ 849 mg/mL)
